Data as given in patent publication US4123541A, “2-Aminomethyl-5-phenyloxazoles and the pharmaceutically acceptable salts thereof” (Mitsubishi Chemical Industries Limited, priority 1976, dated 1978).
Like-named read-outs stand apart in the source and are kept apart here.

Key:
[1] = test system: carageenin-induced rat paw inflammation; assay: Anti-inflammatory activity: carrageenin-induced rat paw inflammation (edema), oral; assay type: in vivo, rats of Wistar-King strain; conditions: 3 hours after carrageenin, read-out: Anti-inflammatory Activity (carageenin-induced rat paw inflammation) Percent Inhibition of Swelling; for inhibition in vivo at 25 mg/kg: oral dose 25 mg/kg; for inhibition in vivo at 50 mg/kg: oral dose 50 mg/kg; for inhibition in vivo at 100 mg/kg: oral dose 100 mg/kg; for inhibition in vivo at 12.5 mg/kg: oral dose 12.5 mg/kg
Method: The anti-inflammatory activity of the 2-aminomethyl-5-phenyloxazoles was compared with that of aminopyrine.
Eight male rats of Wistar-King strain, each weighing between 120 to 150 grams, were used for each group. The hind paw of the rats was injected subcutaneously with 0.1 ml of 1% carrageenin suspension. The volume of the paw was measured plethysmographically 3 hours after the injection, and the difference in volume between the edematous foot and the normal foot was regarded as the degree of edema. Each percent inhibition was calculated in comparison with the control. The test compounds were administered orally 30 minutes before the injection of carrageenin.

[2] = test system: AcOH induced Writhing in Mice; assay: Analgesic activity: (A) writhing syndrome induced by acetic acid; assay type: in vivo, mice of ddY strain; conditions: Mus musculus, sc, Litchfield-Wilcoxon's method
Method: (A) Writhing syndrome induced by acetic acid Six male mice of ddY strain, each weighing between 25 to 30 grams were used in the present experiment. […] Thereafter, the total number of writhings of a group was recorded for 20 minutes, and percent inhibition was calculated in comparison with the control. ED50 was calculated according to Litchfield-Wilcoxon's method.

[3] = test system: squeak response of mouse to electrical stimulation of the tail root; assay: Analgesic activity: (B) electrical stimulation method; assay type: in vivo, mice of ddY strain; conditions: ip, mice, Weil's method
Method: The analgesic activity of the 2-aminomethyl-5-phenyloxazoles was compared with that of aminopyrine.
(B) Electrical stimulation method
Five male mice of ddY strain, each weighing between 25 to 30 grams were used for each group.
Bipolar electrode was placed on the tail root of mouse. The mouse was stimulated with a square wave (5 m sec, 1 Hz), and the minimum voltage of squeak response was measured at 5, 10, 15, 30, 45 and 60 minutes after intraperitoneal administration of the test compound. Positive analgesic response was determined in cases where increase in the minimum voltage was observed. ED50 was calculated according to Weil's method. The acute toxicity values (LD50) of the […] were determined in the following manner: […]

[4] = Acute toxicity (LD50), mortality observed for 168 hours; conditions: mouse, in vivo, ip
Method: Bipolar electrode was placed on the tail root of mouse. The mouse was stimulated with a square wave (5 m sec, 1 Hz), and the minimum voltage of squeak response was measured at 5, 10, 15, 30, 45 and 60 minutes after intraperitoneal administration of the test compound. Positive analgesic response was determined in cases where increase in the minimum voltage was observed. ED50 was calculated according to Weil's method. The acute toxicity values (LD50) of the 2-aminoethyl-5-phenyloxazoles were determined in the following manner:
LD50 was calculated according to Weil's method.

[5] = mice, mortality for 168 hours, Weil's method

CNCc1ncc(-c2ccccc2)o1
inhibition in vivo at 25 mg/kg [1]: 5% | inhibition in vivo at 50 mg/kg [1]: 40% | inhibition in vivo at 100 mg/kg [1]: 48% | ED50 [2]: 10.1 mg/kg | ED50 [3]: 32 mg/kg | LD50 at 168 h ([4]; read-out: LD50 in Mice): 238 mg/kg

CCNCc1ncc(-c2ccc(Cl)cc2)o1
inhibition in vivo at 12.5 mg/kg [1]: 16% | inhibition in vivo at 25 mg/kg [1]: 43% | inhibition in vivo at 50 mg/kg [1]: 65% | inhibition in vivo at 100 mg/kg [1]: 60% | ED50 [2]: 1.9 mg/kg | ED50 [3]: 35 mg/kg | LD50 at 168 h ([4]; read-out: LD50 in Mice): 283 mg/kg

CN(C)Cc1ncc(-c2ccc(Cl)cc2)o1
inhibition in vivo at 100 mg/kg [1]: 7% | ED50 [2]: 78 mg/kg | ED50 [3]: 77 mg/kg | LD50 at 168 h ([4]; read-out: LD50 in Mice): 336 mg/kg

CNCc1ncc(-c2ccc(Cl)cc2)o1
inhibition in vivo at 100 mg/kg [1]: 17% | ED50 [2]: 22 mg/kg | ED50 [3]: 46 mg/kg | LD50 at 168 h ([4]; read-out: LD50 in Mice): 141 mg/kg

NCc1ncc(-c2ccc(Cl)cc2)o1
inhibition in vivo at 25 mg/kg [1]: 25% | inhibition in vivo at 50 mg/kg [1]: 29% | inhibition in vivo at 100 mg/kg [1]: 65% | ED50 [2]: 6 mg/kg | ED50 [3]: 50 mg/kg | LD50 at 168 h ([4]; read-out: LD50 in Mice): 476 mg/kg

CCNCc1ncc(-c2ccccc2)o1
inhibition in vivo at 50 mg/kg [1]: 23% | inhibition in vivo at 100 mg/kg [1]: 47% | ED50 [3]: 21.4 mg/kg | LD50 at 168 h ([4]; read-out: LD50 in Mice): 141 mg/kg

CNCc1ncc(-c2ccc(F)cc2)o1
inhibition in vivo at 50 mg/kg [1]: 38% | inhibition in vivo at 100 mg/kg [1]: 55% | LD50 at 168 h [4, 5]: 141 mg/kg

NCc1ncc(-c2ccccc2Cl)o1
inhibition in vivo at 25 mg/kg [1]: 28% | inhibition in vivo at 50 mg/kg [1]: 58% | inhibition in vivo at 100 mg/kg [1]: 42% | LD50 at 168 h [4, 5]: 283 mg/kg

CNCc1ncc(-c2cccc(Cl)c2)o1
inhibition in vivo at 100 mg/kg [1]: 21% | LD50 at 168 h [4, 5]: 283 mg/kg

CNCc1ncc(-c2ccccc2Cl)o1
inhibition in vivo at 100 mg/kg [1]: 14% | LD50 at 168 h [4, 5]: 141 mg/kg

CCNCc1ncc(-c2ccccc2Cl)o1
inhibition in vivo at 100 mg/kg [1]: 14% | ED50 [3]: 54 mg/kg | LD50 at 168 h ([4]; read-out: LD50 in Mice): 141 mg/kg

CCNCc1ncc(-c2ccc(Br)cc2)o1
inhibition in vivo at 100 mg/kg [1]: 22% | LD50 at 168 h [4, 5]: 168 mg/kg

CCNCc1ncc(-c2ccc(Cl)c(Cl)c2)o1
inhibition in vivo at 25 mg/kg [1]: 27% | inhibition in vivo at 50 mg/kg [1]: 56% | inhibition in vivo at 100 mg/kg [1]: 68% | LD50 at 168 h [4, 5]: 141 mg/kg

CCCNCc1ncc(-c2ccc(Cl)cc2)o1
inhibition in vivo at 50 mg/kg [1]: 24% | inhibition in vivo at 100 mg/kg [1]: 38% | ED50 [3]: 47 mg/kg | LD50 at 168 h ([4]; read-out: LD50 in Mice): 566 mg/kg

CCCNCc1ncc(-c2cccc(Cl)c2)o1
inhibition in vivo at 50 mg/kg [1]: 4% | inhibition in vivo at 100 mg/kg [1]: 32% | LD50 at 168 h [4, 5]: 283 mg/kg

CCCNCc1ncc(-c2ccc(F)cc2)o1
inhibition in vivo at 50 mg/kg [1]: 45% | inhibition in vivo at 100 mg/kg [1]: 53% | ED50 [3]: 54 mg/kg | LD50 at 168 h ([4]; read-out: LD50 in Mice): 238 mg/kg

CCN(CC)Cc1ncc(-c2ccc(Cl)cc2)o1
inhibition in vivo at 50 mg/kg [1]: 24% | inhibition in vivo at 100 mg/kg [1]: 44% | LD50 at 168 h [4, 5]: 238 mg/kg

OCCN1CCN(Cc2ncc(-c3ccc(Cl)c(Cl)c3)o2)CC1
inhibition in vivo at 100 mg/kg [1]: 14% | LD50 at 168 h [4, 5]: 141 mg/kg

OCCN1CCN(Cc2ncc(-c3ccccc3)o2)CC1
inhibition in vivo at 100 mg/kg [1]: 6% | LD50 at 168 h [4, 5]: 283 mg/kg

OCCN1CCN(Cc2ncc(-c3ccc(F)cc3)o2)CC1
inhibition in vivo at 50 mg/kg [1]: 8% | inhibition in vivo at 100 mg/kg [1]: 54% | LD50 at 168 h [4, 5]: 336 mg/kg

OCCN1CCN(Cc2ncc(-c3ccc(Cl)cc3)o2)CC1
inhibition in vivo at 12.5 mg/kg [1]: 6% | inhibition in vivo at 25 mg/kg [1]: 27% | inhibition in vivo at 50 mg/kg [1]: 57% | inhibition in vivo at 100 mg/kg [1]: 50% | ED50 [2]: 16 mg/kg | ED50 [3]: 30.8 mg/kg | LD50 at 168 h ([4]; read-out: LD50 in Mice): 283 mg/kg

Cc1c(N(C)C)c(=O)n(-c2ccccc2)n1C [Aminopyrine, reference compound]
inhibition in vivo at 12.5 mg/kg [1]: 9% | inhibition in vivo at 25 mg/kg [1]: 23% | inhibition in vivo at 50 mg/kg [1]: 47% | inhibition in vivo at 100 mg/kg [1]: 65% | ED50 [2]: 37 mg/kg | ED50 [3]: 96 mg/kg | LD50 at 168 h [4, 5]: 270 mg/kg
